Data as given in US11166959B2, “Isofuranone compounds useful as HPK1 inhibitors” (BRISTOL-MYERS SQUIBB COMPANY, priority 2017, dated 2021).
Where two headings read alike, the source gives them in different places.

How the values were obtained:
HPK1 = target: T1, HPK1 (Homo sapiens, UniProt Q92918); test: HPK1 Inhibition Assay (kinase reaction, Caliper capillary electrophoresis); format: biochemical; details: for IRAK4/HPK1 Ratio: ratio of the IRAK4 IC50 value to the HPK1 IC50 value
T1 construct: purchased SignalChem M23-11G
T1 sequence (Q92918 1-346 limits assumed): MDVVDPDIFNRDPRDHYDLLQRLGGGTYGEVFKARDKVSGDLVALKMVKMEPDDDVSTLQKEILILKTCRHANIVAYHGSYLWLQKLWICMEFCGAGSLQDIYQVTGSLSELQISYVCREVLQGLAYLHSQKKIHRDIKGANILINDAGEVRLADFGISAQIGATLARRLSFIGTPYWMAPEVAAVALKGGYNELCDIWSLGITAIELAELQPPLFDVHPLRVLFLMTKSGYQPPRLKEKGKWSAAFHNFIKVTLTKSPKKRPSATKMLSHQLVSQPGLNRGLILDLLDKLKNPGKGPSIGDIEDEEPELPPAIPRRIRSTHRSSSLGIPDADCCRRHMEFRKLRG
How it was run: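 Kinase reactions ran 3 h and were stopped with 1 mM EDTA, with enzyme level and time set for at most 20-30% peptide substrate conversion. Phosphorylated and unphosphorylated peptide were separated by capillary electrophoresis to measure conversion. IC50 derived from 11 compound concentrations.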

IRAK4 = target: T2, IRAK4 (Homo sapiens, UniProt Q9NWZ3); test: IRAK4 Inhibition Assay (kinase reaction, Caliper capillary electrophoresis); format: biochemical; details: 500 μM ATP, 11 concentrations
T2 construct: 1 nM IRAK4 (160-460); purchased SignalChem M24016
T2 sequence (Q9NWZ3 160-460): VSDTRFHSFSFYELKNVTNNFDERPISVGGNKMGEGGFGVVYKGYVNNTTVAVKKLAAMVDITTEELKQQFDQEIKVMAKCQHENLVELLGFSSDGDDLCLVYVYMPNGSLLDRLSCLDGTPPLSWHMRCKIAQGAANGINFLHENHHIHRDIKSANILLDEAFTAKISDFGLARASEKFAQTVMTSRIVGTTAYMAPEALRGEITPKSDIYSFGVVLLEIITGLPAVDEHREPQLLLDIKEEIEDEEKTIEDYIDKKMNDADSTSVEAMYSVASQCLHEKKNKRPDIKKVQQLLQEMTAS

[1] = 0.625 nM HPK1, 22 μM ATP, 11 concentrations, read-out: HPK1 IC50

Row | IC50 (HPK1; [1]) | IRAK4/HPK1 Ratio (HPK1) | IC50 (IRAK4) | SMILES | IC50 (HPK1)
1 | 50 to 250 nM | B (B=10 to 50) | 250 to 1000 nM | CC1(C)OC(=O)c2ccc(Nc3ncc(-c4nc(C5CC5)no4)c(Nc4ccc5[nH]ncc5c4)n3)cc21 [Example 75, 5-{[5-(3-cyclopropyl-1,2,4-oxadiazol-5-yl)-4-[(1H-indazol-5-yl)amino]pyrimidin-2-yl]amino}-3,3-dimethyl-1,3-dihydro-2-benzofuran-1-one] | 
2 | 50 to 250 nM | B (B=10 to 50) | 250 to 1000 nM | CCOC(=O)c1cnc(Nc2ccc3c(c2)C(C)(C)OC3=O)nc1NCCC(C)(C)N [Example 76, Ethyl 4-[(3-amino-3-methylbutyl)amino]-2-[(3,3-dimethyl-1-oxo-1,3-dihydro-2-benzofuran-5-yl)amino]pyrimidine-5-carboxylate] | 
3 | < 50 nM | C (C=>50) | 250 to 1000 nM | CC(C)(CN)CNc1nc(Nc2ccc3c(c2)C(C)(C)OC3=O)ncc1-c1nc(C2CCOCC2)no1 [Example 77, 5-({4-[(3-amino-2,2-dimethylpropyl)amino]-5-[3-(oxan-4-yl)-1,2,4-oxadiazol-5-yl]pyrimidin-2-yl}amino)-3,3-dimethyl-1,3-dihydro-2-benzofuran-1-one] | 
4 | 50 to 250 nM | B (B=10 to 50) | 250 to 1000 nM | CC1(C)OC(=O)c2ccc(Nc3cc(N[C@H](CO)c4ccccc4)c(-c4nc(C5CC5)no4)cn3)cc21 [Example 78, 5-{[5-(3-cyclopropyl-1,2,4-oxadiazol-5-yl)-4-{[(1S)-2-hydroxy-1-phenylethyl]amino}pyridin-2-yl]amino}-3,3-dimethyl-1,3-dihydro-2-benzofuran-1-one] | 
5 | 50 to 250 nM | B (B=10 to 50) | 250 to 1000 nM | CC1(C)OC(=O)c2ccc(Nc3cc(N[C@H](CO)C4CC4)c(-c4nc(C5CC5)no4)cn3)cc21 [Example 79, 5-{[5-(3-cyclopropyl-1,2,4-oxadiazol-5-yl)-4-{[(1S)-1-cyclopropyl-2-hydroxyethyl]amino}pyridin-2-yl]amino}-3,3-dimethyl-1,3-dihydro-2-benzofuran-1-one] | 
6 | < 50 nM | B (B=10 to 50) | 50 to 250 nM | CC1(C)OC(=O)c2ccc(Nc3cc(N[C@H](CO)c4ccccc4)c(-c4nnc(C5CC5)o4)cn3)nc21 [Example 86, 2-{[5-(5-cyclopropyl-1,3,4-oxadiazol-2-yl)-4-{[(1S)-2-hydroxy-1-phenylethyl]amino}pyridin-2-yl]amino}-7,7-dimethyl-5H,7H-furo[3,4-b]pyridin-5-one] | 
7 | < 50 nM | B (B=10 to 50) | 50 to 250 nM | O=C1OC2(CCCC2)c2nc(Nc3cc(N[C@H](CO)c4ccccc4)c(-c4nc(C5CC5)no4)cn3)ccc21 [Example 87, (S)-2′-((5-(3-cyclopropyl-1,2,4-oxadiazol-5-yl)-4-((2-hydroxy-1-phenylethyl)amino)pyridin-2-yl)amino)-5′H-spiro[cyclopentane-1,7′-furo[3,4-b]pyridin]-5′-one] | 
8 | < 50 nM | C (C=>50) | 250 to 1000 nM | CC1(C)OC(=O)c2ccc(Nc3cc(N[C@H](CO)c4ccccc4)c(-c4nnc(C5(C#N)CC5)o4)cn3)nc21 [Example 88, 1-{5-[6-({7,7-dimethyl-5-oxo-5H,7H-furo[3,4-b]pyridin-2-yl}amino)-4-{[(1S)-2-hydroxy-1-phenylethyl]amino}pyridin-3-yl]-1,3,4-oxadiazol-2-yl}cyclopropane-1-carbonitrile] | 

The remaining lines, values behind:

Row | SMILES | IC50 (HPK1; [1]) | IRAK4/HPK1 Ratio (HPK1) | IC50 (IRAK4) | IC50 (HPK1)
9 | CC1(C)OC(=O)c2ccc(Nc3ncc(-c4nnc(C5CCS(=O)(=O)CC5)o4)c(N[C@H](CO)c4ccccc4)n3)cc21 [Example 69, (S)-5-((5-(5-(1,1-dioxidotetrahydro-2H-thiopyran-4-yl)-1,3,4-oxadiazol-2-yl)-4-((2-hydroxy-1-phenylethyl)amino)pyrimidin-2-yl)amino)-3,3-dimethylisobenzofuran-1(3H)-one] | < 50 nM | B (B=10 to 50) | 50 to 250 nM | 
10 | CC1(C)OC(=O)c2ccc(Nc3ncc(-c4nnc(C5(OC(=O)N6CC(F)(F)C6)CC5)o4)c(N[C@H](CO)c4ccccc4)n3)cc21 [Example 70, 1-(5-{2-[(3,3-dimethyl-1-oxo-1,3-dihydro-2-benzofuran-5-yl)amino]-4-{[(1S)-2-hydroxy-1-phenylethyl]amino}pyrimidin-5-yl}-1,3,4-oxadiazol-2-yl)cyclopropyl 3,3-difluoroazetidine-1-carboxylate] | 50 to 250 nM | B (B=10 to 50) | 250 to 1000 nM | 
11 | CCOC(=O)c1cnc(Nc2ccc3c(c2)C(C)(C)OC3=O)nc1NCc1ccccc1C(C)(C)O [Example 71, Ethyl 2-[(3,3-dimethyl-1-oxo-1,3-dihydro-2-benzofuran-5-yl)amino]-4-({[2-(2-hydroxypropan-2-yl)phenyl]methyl}amino)pyrimidine-5-carboxylate] | < 50 nM | B (B=10 to 50) | 250 to 1000 nM | 
12 | Cc1noc(-c2cnc(Nc3ccc4c(c3)C(C)(C)OC4=O)nc2NCc2ccccc2C(C)(C)O)n1 [Example 72, 5-{[4-({[2-(2-hydroxypropan-2-yl)phenyl]methyl}amino)-5-(3-methyl-1,2,4-oxadiazol-5-yl)pyrimidin-2-yl]amino}-3,3-dimethyl-1,3-dihydro-2-benzofuran-1-one] | 50 to 250 nM | B (B=10 to 50) | 250 to 1000 nM | 
13 | CC(C)(O)c1ccccc1CNc1nc(Nc2ccc3c(c2)C(C)(C)OC3=O)ncc1-c1nc(C2CC2)no1 [Example 73, 5-{[5-(3-cyclopropyl-1,2,4-oxadiazol-5-yl)-4-({[2-(2-hydroxypropan-2-yl)phenyl]methyl}amino)pyrimidin-2-yl]amino}-3,3-dimethyl-1,3-dihydro-2-benzofuran-1-one] | 50 to 250 nM | B (B=10 to 50) | 250 to 1000 nM | 
14 | Cc1noc(-c2cnc(Nc3ccc4c(c3)C(C)(C)OC4=O)nc2Nc2ccc3[nH]ncc3c2)n1 [Example 74, 5-({4-[(1H-indazol-5-yl)amino]-5-(3-methyl-1,2,4-oxadiazol-5-yl)pyrimidin-2-yl}amino)-3,3-dimethyl-1,3-dihydro-2-benzofuran-1-one] | 50 to 250 nM | B (B=10 to 50) | 250 to 1000 nM | 
15 | CC1(C)OC(=O)c2ccc(Nc3cc(N[C@H](CO)c4ccccc4)c(-c4nc(C56CCN(CC5)CC6)no4)cn3)nc21 [Example 81, 2-{[5-(3-{1-azabicyclo[2.2.2]octan-4-yl}-1,2,4-oxadiazol-5-yl)-4-{[(1S)-2-hydroxy-1-phenylethyl]amino}pyridin-2-yl]amino}-7,7-dimethyl-5H,7H-furo[3,4-b]pyridin-5-one] |  | C (C=>50) | 50 to 250 nM | < 50 nM
16 | CC1(C)OC(=O)c2ccc(Nc3cc(N[C@H](CO)c4ccc(F)cc4)c(-c4nc(C56CCN(CC5)CC6)no4)cn3)nc21 [Example 82, 2-{[5-(3-{1-azabicyclo[2.2.2]octan-4-yl}-1,2,4-oxadiazol-5-yl)-4-{1[(1S)-1-(4-fluorophenyl)-2-hydroxyethyl]amino}pyridin-2-yl]amino}-7,7-dimethyl-5H,7H-furo [3,4-b]pyridin-5-one] |  | C (C=>50) | 50 to 250 nM | < 50 nM
17 | CC1(C)OC(=O)c2ccc(Nc3cc(N[C@H](CO)c4ccccc4)c(-c4nc(C5CN6CCC5(F)CC6)no4)cn3)nc21 (stereo partly drawn) [Example 83, 2-{[5-(3-{4-fluoro-1-azabicyclo[2.2.2]octan-3-yl}-1,2,4-oxadiazol-5-yl)-4-{[(1S)-2-hydroxy-1-phenylethyl]amino}pyridin-2-yl]amino}-7,7-dimethyl-5H,7H-furo [3,4-b]pyridin-5-one] |  | C (C=>50) | 50 to 250 nM | < 50 nM
18 | CC1(C)OC(=O)c2ccc(Nc3cc(NCc4nccs4)c(-c4nc(C56CCN(CC5)CC6)no4)cn3)nc21 [Example 84, 2-{[5-(3-{1-azabicyclo[2.2.2]octan-4-yl}-1,2,4-oxadiazol-5-yl)-4-{[(1,3-thiazol-2-yl)methyl]amino}pyridin-2-yl]amino}-7,7-dimethyl-5H,7H-furo[3,4-b]pyridin-5-one] | < 50 nM | C (C=>50) | 250 to 1000 nM | 
19 | CC1(C)OC(=O)c2ccc(Nc3cc(NCc4cccnc4)c(-c4nc(C56CCN(CC5)CC6)no4)cn3)nc21 [Example 85, 2-{[5-(3-{1-azabicyclo[2.2.2]octan-4-yl}-1,2,4-oxadiazol-5-yl)-4-{[(pyridin-3-yl)methyl]amino}pyridin-2-yl]amino}-7,7-dimethyl-5H,7H-furo[3,4-b]pyridin-5-one] | < 50 nM | C (C=>50) | 250 to 1000 nM | 
